What all share (format): cell-based, human
The subject of experiment [1] is hESC-derived neural progenitors with caudal and ventral specification. Put plainly: Terminal motor neuron differentiation of plated spheres in the presence of DAPT (HB9, CHAT immunostaining). The procedure: (§1) The spheres were then further cultured in the same neurobasal medium supplemented with 2 mM L-glutamine, 50 units/ml penicillin, 50 μg/ml streptomycin, 1% non-essential amino-acids, 1% N2 (all from Invitrogen), 1 μM db-cAMP and 10 ng/ml of BDNF, GDNF and IGF-I (all from Peprotech). This medium was designated as motor neuron medium (MNM). The clusters could be cultured in suspension in this medium for prolonged periods (5 months). At various time points along this period the cells were plated on 10 μg/ml Poly-D-Lysine (Sigma) and 5 μg/ml laminin (Sigma) for terminal differentiation in the presence or absence of the γ-secretase inhibitor [N-(3,5-Difluorophenacetyl)-L-alanyl]-S-phenylglycine t-butyl ester (DAPT; 1 μM, Sigma).
(§2) The following primary antibodies were used: polyclonal rabbit anti Isl1 (1:750, Abeam), mouse anti HB9 (1:50, DSHB), polyclonal goat anti CHAT (1:200, R&D), and goat anti olig2 (1:75, R&D).
(§3) The following secondary antibodies: goat anti-rabbit conjugated to Cy-3 (1:1000, Jackson), goat anti-mouse conjugated to Cy-3 (1:500, Jackson), donkey anti goat conjugated to rhodamin (1:300, Jackson), Texas red or Alexa 488-conjugated goat anti-mouse IgM (1:100, Jackson), goat anti-rabbit IgG (1:100, Molecular Probes), goat anti-mouse IgG (1:100, Molecular Probes) or donkey anti-goat IgG (1:250, Jackson) were used as secondary antibodies, where appropriate.
To further enhance the motor neuron differentiation, caudalization and ventralization were followed by blocking Notch signaling with the γ-secretase inhibitor DAPT. After 2-3 weeks of maturation in MNM, the spheres were plated on laminin and terminally differentiated in the presence of DAPT for 7-10 days.

The subject of experiment [2] is hESC-derived neural spheres. Put plainly: Olig-2, HB9 and CHAT expression after caudalization, ventralization and maturation in MNM. The protocol:
(§4) Alternatively, the spheres were cultured in the same medium supplemented with 1 μM RA (Sigma) for 1 week. Followed by further culturing the spheres in neurobasal medium (Invitrogen) supplemented with 2 mM L-glutamine (Invitrogen), 50 units/ml penicillin (Invitrogen), 50 μg/ml streptomycin (Invitrogen), 1% non-essential amino-acids (Invitrogen), N2 (Invitrogen), 1 μM db-cAMP (Sigma) and 1 μM RA (Sigma), or 0.5 μM Pur (Merck), or combination of RA and Pur, for 2-3 weeks.
as §1, §2, §3
In a similar set of experiments, after initial early neural induction in the presence of FGF2, the spheres were induced to take a caudal fate by 7 days treatment with RA. […]

Experiment [3] relates to hESC-derived neural precursors. Put plainly: Immunostaining for HB9 after 1 week RA, 3 weeks treatment and 4-6 weeks maturation in MNM. The conditions noted are these: RA 1 week, then 3 weeks treatment, then maturation 4-6 weeks in MNM. The procedure:
as §4, §1
The following primary antibodies were used: polyclonal rabbit anti Isl1 (1:750, Abeam), mouse anti HB9 (1:50, DSHB), polyclonal goat anti CHAT (1:200, R&D), and goat anti olig2 (1:75, R&D). […]

For experiment [4], the system named is hESC-derived neural precursors. Put plainly: RT-PCR of Olig2, Ngn2 and HB9 transcripts after early neural induction and 2-3 weeks treatment. The procedure: (§5) To develop spheres enriched for neural precursors, hESC colonies were removed intact from the feeders, 6 days after passage, with collagenase IV. They were cultured in low adherent culture dishes (HydroCell) in DMEM/F12 (1:1) basal medium (Invitrogen), supplemented with 2% B27, 2 mM glutamine, 50 units/ml penicillin, 50 μg/ml streptomycin (all from Invitrogen), and 20 ng/ml rh-FGF-2 (Peprotech). In some experiments the medium was also supplemented with noggin 600-700 ng/ml (both from R&D) for 14-16 days.
The medium was further supplemented with 1 μM retinoic acid (“RA”; Sigma) or 0.5 μM purmorphamine (“Pur”; a hedgehog agonist; Merck), or combination of Pur and RA, for 3 weeks.
Total RNA was extracted from free-floating clusters after 2 and 3 weeks of treatment with RA, Pur or both. Total RNA was isolated using TRI-reagent (Sigma) followed by treatment with RNase-free DNase (Ambion). cDNA synthesis was carried out using Moloney murine leukemia virus (M-MLV) reverse transcriptase and random primers, according to the manufacturers' instructions (Promega). To analyze relative expression of different mRNAs, the amount of cDNA was normalized based on the signal from GAPDH mRNA. PCR was carried out using standard protocols with Taq DNA Polymerase (Promega). Amplification conditions were as follows: denaturation at 94° C. for 30 seconds, annealing at 55° C. for 30 seconds, and extension at 72° C. for 45 seconds. The number of cycles varied between 30 and 40, depending on particular mRNA abundance. Primer sequences (forward and reverse 5′-3′) were as shown in Table 1 (sequence identification number (SEQ ID NO.) according to the Sequence Listing is also provided):
Following this initial induction of early neural differentiation, the role of purmorphamine (Pur) and retinoic acid (RA) in further specification towards a caudal and ventral fate was examined. The neural precursors were further cultured 2-3 weeks with Pur, RA, or the combination of RA & Pur as well as with FGF2 as a control. Caudalization and ventralization were studied by analyzing the expression of Olig-2, Ngn2 and HB9 transcripts (FIGS. 2A, 2B and 2C). […] Without being bound by theory, induction of expression of these transcription factors by RA after 3 weeks (lane 6 in FIGS. 2A and 2C) may be related to RA-mediated induction of endogenous SHH gene expression.

Experiment [5] concerns hESC clusters. Put plainly: Early neural induction of hESC clusters (PSA-NCAM expression). Particulars: chemically defined medium with FGF2 with or without noggin, two weeks. The procedure:
as §5
To induce the differentiation of hESCs towards motor neurons, hESC clusters were initially cultured in chemically defined medium supplemented with FGF2 with or without noggin for two weeks. At the end of this culture period the clusters acquired round morphology typical of neural spheres.

Experiment [6] has as its system hESC-derived neural precursors. Put plainly: Immunostaining for Olig-2 and Isl-1 after early neural induction and 3 weeks treatment. The conditions noted are these: treatment for 3 weeks.
Protocol: To develop spheres enriched for neural precursors, hESC colonies were removed intact from the feeders, 6 days after passage, with collagenase IV. They were cultured in low adherent culture dishes (HydroCell) in DMEM/F12 (1:1) basal medium (Invitrogen), supplemented with 2% B27, 2 mM glutamine, 50 units/ml penicillin, 50 μg/ml streptomycin (all from Invitrogen), and 20 ng/ml rh-FGF-2 (Peprotech). In some experiments the medium was also supplemented with noggin 600-700 ng/ml (both from R&D) for 14-16 days. […] The medium was further supplemented with 1 μM retinoic acid (“RA”; Sigma) or 0.5 μM purmorphamine (“Pur”; a hedgehog agonist; Merck), or combination of Pur and RA, for 3 weeks. The following primary antibodies were used: polyclonal rabbit anti Isl1 (1:750, Abeam), mouse anti HB9 (1:50, DSHB), polyclonal goat anti CHAT (1:200, R&D), and goat anti olig2 (1:75, R&D). The following secondary antibodies: goat anti-rabbit conjugated to Cy-3 (1:1000, Jackson), goat anti-mouse conjugated to Cy-3 (1:500, Jackson), donkey anti goat conjugated to rhodamin (1:300, Jackson), Texas red or Alexa 488-conjugated goat anti-mouse IgM (1:100, Jackson), goat anti-rabbit IgG (1:100, Molecular Probes), goat anti-mouse IgG (1:100, Molecular Probes) or donkey anti-goat IgG (1:250, Jackson) were used as secondary antibodies, where appropriate.
Where [7] appears, read: DAPT 1 μM for 7-10 days after 2-3 weeks maturation in MNM, plated on laminin.
[8] abbreviates: RA 7 days, Pur with or without RA 2-3 weeks, 4 weeks maturation in MNM, plated on laminin, no DAPT.

Data on three compounds can be found in patent US8735149B2, “Motor neurons developed from stem cells” (Hadasit Medical Research Services & Development Limited, priority 2008, dated 2014).

Take `C[C@H](NC(=O)Cc1cc(F)cc(F)c1)C(=O)N[C@H](C(=O)OC(C)(C)C)c1ccccc1` [DAPT, [N-(3,5-Difluorophenacetyl)-L-alanyl]-S-phenylglycine t-butyl ester]: in experiment [1] (setting [7]), the “increase of percentage of HB9+ cells” value is reported as 1.5-2 folds and the “percentage of HB9+ cells” value is given as 40-70 % of total cells. In addition, the “neurite outgrowth and branching from CHAT expressing cells” value in experiment [1] (DAPT during terminal differentiation) was “significantly augmented”.

With `c1ccc2c(Oc3nc(Nc4ccc(N5CCOCC5)cc4)c4ncn(C5CCCCC5)c4n3)cccc2c1` [Pur, purmorphamine], the “cells within the spheres expressing Olig-2” value in experiment [2] (7 days RA, then Pur in the presence or absence of RA for 2-3 weeks) is 23-54 % of the cells. Also, in experiment [2] (setting [8]), the “cells expressing CHAT” value was 20-50 % of the cells and the “cells expressing HB9” value is reported as 20-50 % of the cells. Besides, in experiment [3], the “cells expressing HB9 protein” value is listed as 66 % of total cells. Also, in experiment [4] (after 2 weeks of treatment), the “expression of HB9 transcripts” value is given as “induced the expression” and the “expression of Olig-2 transcripts” value was “induced the expression”. For the same compound, in experiment [4] (after 3 weeks of treatment), the “expression of HB9 transcripts” value is “induced the expression” and the “expression of Olig-2 transcripts” value was “induced the expression”.

In the case of “FGF2: basic fibroblast growth factor, used for early neural induction and as control treatment”, the “neural precursor cells expressing PSA-NCAM within the clusters” value in experiment [5] was “highly enriched”. Moreover, the “cells expressing HB9 protein” value in experiment [3] was “not expressed”. Besides, in experiment [6], the “cells expressing Isl-1” value was “not expressed” and the “cells expressing Olig-2” value was “did not induce the expression”. Moreover, in experiment [4] (after 2 weeks of treatment), the “expression of HB9 transcripts” value was “did not induce the expression”, the “expression of Ngn2 transcripts” value was “did not induce the expression” and the “expression of Olig-2 transcripts” value is recorded as “did not induce the expression”. In addition, in experiment [4] (after 3 weeks of treatment), the “expression of HB9 transcripts” value is given as “did not induce the expression”, the “expression of Ngn2 transcripts” value is listed as “did not induce the expression” and the “expression of Olig-2 transcripts” value is given as “did not induce the expression”.
